4 compounds from PMC8201324, “Pyrazoles and Pyrazolines as Anti-Inflammatory Agents” (Molecules, 2021) can be followed below.

Assay [1] relates to acetic acid-induced writhing. The assay is described as follows: Anti-nociception writhing test (acetic acid). Format: in vivo, Fisher 344 rats. Particulars: 0.0057 mmol/kg body weight i.p., 0.6% acetic acid after 30 min. The source says:
The acetic acid-induced writhing test is a quick, simple and reproducible method, despite the fact that it lacks specialization. […] The animals (Fisher 344 rats), were housed under standard conditions, and received a diet of commercial food pellets and water ad libitum during the maintenance, but were entirely fasted during the experiment period. Both sexes were used, while pregnant females were excluded. Each group was composed of 6–15 animals. Our studies were in accordance with recognized guidelines on animal experimentation (guidelines for the care and use of laboratory animals published by the Greek Government 160/1991, based on EU regulations 86/609). Rats were kept in the Centre of the School of Veterinary Medicine (EL54 BIO42), Aristotle University of Thessaloniki, which is registered by the official state veterinary authorities (presidential degree 56/2013, in harmony with the European Directive 2010/63/EEC). The experimental protocols were approved by the Animal Ethics Committee of the Prefecture of Central Macedonia. For the study of the analgesic activity of the tested compounds, pain is provoked with acetic acid. Animals were divided in three five-membered groups, according to our reported method. After treatment with the tested compounds (0.0057 mmol/kg body weight; intraperitoneally) in the first group, the second group was used as a positive control (aspirin; 0.0057 mmol/kg body weight i.p.) and the third group served as the control in which saline was administered (negative control). After 30 min, 0.6% acetic acid (1 mL/kg body weight) was injected i.p. The number of writhes was recorded for each animal every 5 min during a subsequent 30 min period (Table 6).

Assay [2] concerns carrageenin-induced rat paw edema. The experiment in a line: Inhibition of the carrageenin-induced rat paw edema. The settings on record: 0.0057 mmol/Kg body weight, intraperitoneally, 3.5 h after carrageenin. Format: in vivo, Fisher 344 rats. The source says: The carrageenin-induced rat paw edema assay was used, as a model of acute inflammation. Inflammation induced by carrageenan is acute, non-immune, well-researched, and highly reproducible, and is described as a biphasic event. Cardinal signs of inflammation—edema, hyperalgesia, and erythema, are developed immediately following subcutaneous injection, resulting from the action of pro-inflammatory agents: bradykinin, histamine, tachykinins, complement reactive oxygen and nitrogen species. It is known that NSAIDs act during the second phase of prostaglandin release, presenting weak activity in the first phase of histamine and serotonin release.
(§1) The animals (Fisher 344 rats), were housed under standard conditions, and received a diet of commercial food pellets and water ad libitum during the maintenance, but were entirely fasted during the experiment period. Both sexes were used, while pregnant females were excluded. Each group was composed of 6–15 animals. Our studies were in accordance with recognized guidelines on animal experimentation (guidelines for the care and use of laboratory animals published by the Greek Government 160/1991, based on EU regulations 86/609). Rats were kept in the Centre of the School of Veterinary Medicine (EL54 BIO42), Aristotle University of Thessaloniki, which is registered by the official state veterinary authorities (presidential degree 56/2013, in harmony with the European Directive 2010/63/EEC). The experimental protocols were approved by the Animal Ethics Committee of the Prefecture of Central Macedonia.
Carrageenin in water as an intradermal injection of 0.1 mL 2% was used for the induction of the edema in the right hind paw of the rats, according to the previously reported method. Animals were divided in five-membered groups and the tested compounds were suspended in water (0.0057 mmol/kg body weight), with a few drops of Tween 80, ground in a mortar before administered intraperitoneally simultaneously. The rats were euthanized 3.5 h after carrageenin injection. Comparison of the change in paw weight with that in control animals (treated with water) was expressed as a percent inhibition of the oedema CPE% values using indomethacin (IMA) as a reference compound. Values CPE% are the mean from two different experiments with a standard error of the mean less than 10% (Table 5). Student’s T test was applied.
In general terms: In the carrageenan paw model, swelling and tenderness develop within hours.

For assay [3], the system named is adjuvant-induced disease (AID). The assay is described as follows: Adjuvant-induced disease (AID). Format: in vivo, Fisher 344 rats. Particulars: AID rats. The procedure:
Adjuvant-induced disease (AID) is a good experimental model for rheumatoid arthritis, and is often used in testing agents for anti-inflammatory activity. The compound was administered intraperitoneally on the 1st day, i.e., the day of the administration of Freund’s adjuvant (FA), and once every other day for the following 24 days. Adjuvant arthritis was developed about 14 days post-FA administration. […] The effect of the tested compound on inflammation is shown in Table 7 and the time course of adjuvant arthritis development expressed as arthritic score is shown in Figure 2. In the same experimental model, Indomethacin (IMA) was used as a reference compound.
as §1
Rats were divided into four groups (five-membered groups of animals were used): groups one, two and three were injected intradermally with 0.1 mL Freund’s adjuvant (FA) into the base of the tails of the animals; group three was the FA control rats; group four was injected with saline, used as an absolute control. Compound 2d (group 1) and indomethacin (group 2) were injected i.p. once every other day for the following 24 days in a dose of 0.00057 mmol/mL/kg body weight (Table 7). Adjuvant arthritis was developed circa 14 days post-FA administration. Arthritic score was measured every 2 days from the commencement (14th day) day. Arthritic score was assessed on the 24th day. For quantification of arthritis (arthritic score); a single point was assigned for each wrist or ankle area and an additional point was given for each involved phalangeal joint, up to a maximum of five points per extremity.
On the 24th day and at least 12 h after the last injection, animals were administered zoxazolamine i.p. […], as an aqueous suspension with a few drops of Tween 80, and the duration of the paralysis were assessed (Table 7) (Figure 2). The experiment was conducted in duplicate.

Assay [4] in a line: Reducing activity of the stable radical DPPH. Type of assay: biochemical. The procedure: The novel derivatives were studied for their interaction with the stable 2,2-diphenyl-1-picrylhydrazyl free radical (DPPH) at concentrations 50 µM, 100 µM, 200 µM and after 20 and 60 min (Table 3). This assay is based on the reduction of the DPPH by transferring an electron from the antioxidant. […] However, it seems that the interaction is dependent on the concentration and on the reaction time. From this point of view, it can be concluded that the acetyl pyrazolyl derivatives 2c and 2f seem to present the highest scavenging activities. An increase in concentration favors the activity. […] As for compounds 2a, 2b, 2c and 2f, activity seems to be time dependent at 200 µM. […] The presence of a chlorine group in 2e pyrazoline leads to an activity increase (compared to 2d) in concentration 200 µM. The acetyl derivative 2f presents better activity than 2b at 200 µM.
(§2) A stock solution (1% DMSO in the appropriate buffer with the tested compound diluted under sonication) was prepared for the in vitro assays from which several dilutions were made with the appropriate buffer. The in vitro experiments were performed at least in triplicate, and the standard deviation of absorbance was less than 10% of the mean.
A stock solution (10 mM) of the novel derivatives in DMSO was prepared and an equal volume of it was added to a solution of DPPH in absolute ethanol to reach final concentrations 50, 100 µM and 200 µM. The absorbance was recorded at 517 nm, after 20 and 60 min at room temperature (Table 3).

Assay [5] can be described thus: Inhibition of linoleic acid lipid peroxidation (AAPH). Type of assay: biochemical. The procedure:
For the lipid peroxidation study, 2,2′-azobis(2-amidinopropane) hydrochloride (AAPH) was used for the generation of peroxyl radicals. The generation of the conjugated diene hydroperoxide derived from the oxidation of sodium linoleate in an aqueous solution was recorded at 234 nm. The compounds presented high anti-lipid peroxidation activity (78–100%) (Table 4). Pyrazolines 2a and 2b present lower anti-lipid peroxidation activity (89% and 78% respectively).
as §2
AAPH was used as free radical initiator of alkylperoxyl radicals. The ability of the compounds to prevent the oxidation of linoleic acid sodium salt from alkylperoxyl radicals was recorded at 234 nm. Trolox was used as reference (93%) (Table 4).

Assay [6] in a line: ABTS+ decolorization assay for antioxidant activity. Format: biochemical.
Description: Pyrazolines 2d and 2e which are the most lipophilic compounds, showing antioxidant activity using the ABTS radical cation (ABTS^•+) generated through potassium persulfate by oxidation with no participation of an intermediary radical. This reduction is completed by adding electron-donating antioxidants. It seems that lipophilicity influences the activity, since both present high lipophilicity values.
as §2
The ABTS radical cation (ABTS^+•) was generated by mixing ABTS stock solution in water (7 mM) with potassium persulfate (2.45 mM) and left in the dark at room temperature for 12–16 h before use. The results are recorded immediately after the mixing solutions at 734 nm. The results were compared to the appropriate standard inhibitor Trolox (Table 4).

Where [7] appears, read: 0.00057 mmol/mL/kg i.p. every other day for 24 days.

The structures appear in SMILES notation. Marks after values point to notes of the source that are not given here.

`CC(=O)Oc1ccccc1C(=O)O` [Aspirin, acetylsalicylic acid, reference compound]: the “Writhing Inhibition (%)” value in assay [1] is listed as 77 ** %.

`COc1ccc2c(c1)c(CC(=O)O)c(C)n2C(=O)c1ccc(Cl)cc1` [Indomethacin, reference compound]: in assay [2], the “CPE % (reduction in the rat paw edema induced by carrageenin)” value was 47 ** %. In assay [3] (setting [7]), the “Percent change in body weight (g ± SD)” value came to 8.3 ± 0.2 g and the “Percent change in liver weight (g ± SD)” value is reported as 6.3 ± 0.4 g. Further, the “Zoxazolamine paralysis (minutes ± SD)” value in assay [3] (24th day, zoxazolamine i.p.) came to 217 ± 17 min.

With `CC(Cc1ccc(O)c(O)c1)C(C)Cc1ccc(O)c(O)c1` (stereo not drawn) [NDGA, Nordihydroguaretic acid, reference compound], the “RA% 50 µM 20 min” value in assay [4] (50 µM, 20 min) is recorded as 81%. Also, the “RA% 50 µM 60 min” value in assay [4] (50 µM, 60 min) is 83%. For the same compound, the “RA% 100 µM 20 min” value in assay [4] (100 µM, 20 min) stood at 87%. Moreover, the “RA% 200 µM 20 min” value in assay [4] (200 µM, 20 min) is on record as 94%. For the same compound, the “RA% 200 µM 60 min” value in assay [4] (200 µM, 60 min) amounted to 96%.

For `Cc1c(C)c2c(c(C)c1O)CCC(C)(C(=O)O)O2` (stereo not drawn) [Trolox, 6-Hydroxy-2,5,7,8-tetramethyl-chroman-2-carboxylic acid, reference compound], in assay [5], the “AAPH% 100 µM (anti-lipid peroxidation)” value was 93%. Further, the “ABTS^+ % 100 µM (decolorization activity)” value in assay [6] is given as 91%.
